# In patent US9926293B2, “Multivalent RAS binding compounds” (THE TRUSTEES OF COLUMBIA UNIVERSITY IN THE CITY OF NEW YORK, priority 2014, dated 2018):
# Key:
# [1] = biological target: T1, GppNHp-loaded KRASG12D (Homo sapiens, UniProt P01116, G12D); experiment: Microscale thermophoresis, lysine NT-647-labeled GppNHp-loaded KRAS^G12D; type: binding; settings: MST, GppNHp-bound KRAS^G12D, Table 6; read-out: KD
# T1 construct: made in house; host or cells: Escherichia coli BL21-Gold (DE3)
# Procedure: Microscale Thermophoresis
# KRAS^G12D (250 μM) in 25 mM HEPES, 100 mM sodium chloride, 2 mM TCEP with 20 mM EDTA and 1 mM GppNHp was shaken at 220 rpm at 30° C. to remove the endogenous nucleotide, The solution was placed on ice for 2 minutes prior to the addition of 65 mM MgCl2. After an additional 10 minutes incubation on ice, 200 uL of a 10 uM solution of KRAS^G12D was combined with 200 uL of a 20 uM solution of NT-647-NHS-ester dye (from a 652.4 μM stock). The protein/dye mixture was rotated at 4° C. for 30 minutes, before being separated from the excess dye and buffer exchanged into 25 mM Tris, 100 mM sodium chloride, 2 mM TCEP, and 5 mM MgCl2 via a nap-5 column. The test compounds were arrayed across a 16-point dilution series consisting of 1.5% DMSO with 25 mM Tris, 100 mM NaCl, 2 mM TCEP, 5 mM MgCl2 and 0.05% tween-20. Thermophoretic movement of the fluorescently labeled protein with the inhibitors was performed using a Monolith NT.115 (Nanotemper Technologies). RALA and RHOA were purchased commercially from Abcam (RALA CN:ab102555, RHOA CN:ab101594).
# In another set of experiments, the top D38-A59 two-site multivalent compounds were evaluated by a RAS pulldown using the RAS binding domain of CRAF (the top two hits are shown in FIG. 14D). This abrogation of binding between RAS and its effector protein was also evident in the RAS-RALGDS interaction (FIG. 14E). To quantify the binding of the two-site compounds to RAS, MST was performed again using lysine NT-647-labeled, GppNHp-loaded KRAS^G12D. […] The third (Y32) site was extended into (compound 34MEW95) using this scaffold.
# Docking scores and dissociation constants for binding to GppNHp-bound KRAS^G12D (PDB:4DSN) were measured as set forth above for additional 2- and 3-site compounds by microscale thermophoresis.
# [2] = biological target: T2, KRAS^G12D⋅BODIPY-GTP (Homo sapiens, UniProt P01116, G12D); experiment: Nucleotide displacement assay with BODIPY-GTP (fluorescence polarization); type: binding; settings: 2.5 μM KRAS^G12D⋅BODIPY-GTP, 12 hours
# T2 construct: made in house; host or cells: Escherichia coli BL21-Gold (DE3)
# T2 sequence (P01116 1-169 isoform P01116-2 G12D): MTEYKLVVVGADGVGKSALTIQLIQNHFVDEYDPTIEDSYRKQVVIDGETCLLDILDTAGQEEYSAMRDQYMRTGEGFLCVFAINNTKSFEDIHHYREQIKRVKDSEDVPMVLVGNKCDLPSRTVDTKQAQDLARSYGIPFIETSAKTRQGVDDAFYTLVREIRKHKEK
# Procedure: Nucleotide Displacement Assay
# To investigate whether compounds were binding to the same site as GTP, a fluorescent polarization assay was implemented using fluorescently-labeled BODIPY-GTP as a probe. When BODIPY-GTP is free in solution, it has a low polarization. However, when BODIPY-GTP is bound to K-Ras protein, the polarization intensity is high. K-Ras G12D bound to BODIPY-GTP was incubated with different concentrations of ligand or unlabeled GTP or GDP in buffer containing 25 mM Tris-HCl, pH 8, 100 mM NaCl, 5 mM MgCl2, 1 mM EDTA, and 1 mM TCEP. The final concentration of K-Ras G12D bound to BODIPY-GTP in each well was 2.5 μM. The samples were incubated at 25° C. for 12 hours with gentle shaking to allow for the slow intrinsic nucleotide release reaction to take place. The change in fluorescence was measured on a Victor3 plate reader (Perkin Elmer) in 384-well black low-volume plates (Corning, Inc.). The BODIPY-GTP fluorophore was excited at 485 nm and emission was monitored at 535 nm.
# [3] = Microsomal stability; type: in vitro ADME; settings: pH 7.4; mouse liver microsomes, 0.5 μM
# Procedure: Test compounds (0.5 μM) were incubated at 37° C. for up to 45 minutes in 50 mM of potassium phosphate buffer (pH 7.4) containing microsomal protein (0.5 mg/mL) and an NADPH generating system (0.34 mg/mL β-nicotinamide adenine dinucleotide phosphate (NADP), 1.56 mg/mL glucose-6-phosphate, 1.2 units/mL glucose-6-phosphate dehydrogenase). At 0, 5, 15, 30 and 45 minute intervals an aliquot was taken and quenched with acetonitrile (ACN) containing an internal standard. No-cofactor controls at 45 minutes were prepared. Following completion of the experimentation, the samples were analyzed by LC-MS/MS using a Shimadzu HPLC and an Applied Biosystem AP 14000.
# [4] = test system: caspases 3 and 7 in HT-1080 (NRAS^Q61K) cells; experiment: Caspase 3/7 activation assay; type: cell-based; settings: staurosporine 5 μM, 24 hours
# Procedure: Caspase 3/7 Activation Assay
# HT-1080 cells were seeded into 384-well plates at 1,000 cells/well. After 12-16 hours, compounds (as 50 mM stocks in DMSO) were arrayed in a dilution series in 384-well polypropylene plates. Compound solutions were transferred at a 1:5 dilution into the assay plates for a total volume of 40 μL. After 24 hours, 8 μL of a 1:100 solution of rhodamine 110 bis-(N-CBZ-1-aspartyl-1-glutamyl-1-valyl-aspartic acid amide) to lysis buffer (APO-1, Promega) was added and the plate was wrapped in aluminum foil and incubated at room temperature for 16 hours. Fluorescence intensity was then determined using a Victor3 plate reader (Perkin Elmer) with a 490 nm excitation filter and a 535 nm emission filter. A viability curve was performed in parallel with the same incubation time using the procedure described in the “cell viability assays” section.
# [5] = test system: Mouse embryonic fibroblasts (MEFs), null Hras and Nras, floxed Kras; experiment: Growth inhibition of MEFs with floxed Kras locus; type: cell-based; settings: 600 nM, 6 days, vs DMSO
# Procedure: In parallel, cells were treated with DMSO or 4OHT at 600 nM for 6 days. […] Cells were then lysed and treated with a pro-fluorescent caspase 3/7 substrate (rhodamine 110 bis-N-CBZ-L-aspartyl-L-gluramyl-L-valyl-aspartic acid amide) for 16 hours and measured.
# All cell culture assays were incubated at 37° C., 5% CO2 in media containing Dulbecco's Modified Eagle Medium (DMEM) with 10% fetal bovine serum (FBS) and 1% penicillin-streptomycin (PS). 384-well format for EC50 determination: cells were trypsinized, counted, and seeded into 384-well plates at 1,000 cells/well. After 12-16 hours, compounds (as 50 mM stocks in DMSO) were arrayed in an 8- or 16-point dilution series in 384-well polypropylene plates. Compound solutions were transferred at a 1:5 dilution into the assay plates. After 48 hours, a 50% Alamar blue solution was added to a final concentration of 10% Alamar blue. After 6 hours of incubation, fluorescence intensity was determined using a Victor3 plate reader (Perkin Elmer) with a 535 nm excitation filter and a 590 nm emission filter. All compound measurements were performed in triplicate. For experiments performed in 6-well format, cells were trypsinized, counted, and seeded into 6-well plates at 200,000 cells per well 16 h prior to use. […] After 24 hours, cells were trypsinized and viability was determined using Trypan Blue exclusion assay. […]
# T1 sequence (P01116 1-169 isoform P01116-2 G12D): as above
Kd [1],Compound,also measured
1350 µM,"COc1ccccc1-c1cn(CCCNC(=O)C2(N)CCNCC2)c2cccc(CN3CCN(CCOc4ccc(Cl)cc4)CC3)c12 [Compound 34MEW45, 4-amino-N-(3-(4-((4-(2-(4-chlorophenoxy)ethyl)piperazin-1-yl)methyl)-3-(2-methoxyphenyl)-1H-indol-1-yl)propyl)piperidine-4-carboxamide]",–
–,Nc1nc2c(ncn2[C@@H]2O[C@H](COP(=O)(O)OP(=O)(O)OP(=O)(O)O)[C@@H](O)[C@H]2O)c(=O)[nH]1 [GTP],displacement of BODIPY-GTP [2]: can displace
–,"CCOc1ccc2ccc(=O)oc2c1 [7-ethoxycoumarin, reference compound]",half-life at 0.5 μM [3]: 3.9 min
230 µM,"COc1cc(CN2CCN(Cc3ccc4c(c3)c(-c3ccc(OC)cc3OC)cn4CCCNC(=O)C3CNCCN3)CC2)cc(OC)c1 (stereo not shown) [Compound 36MEW3, N-(3-(5-((4-(3,5-dimethoxybenzyl)piperazin-1-yl)methyl)-3-(2,4-dimethoxyphenyl)-1H-indol-1-yl)propyl)piperazine-2-carboxamide]",–
26 µM,COc1cc(COc2ccc(CNC3(C(=O)NCCCn4cc(-c5ccc(OC(F)(F)F)cc5)c5cc(CN6CCN(Cc7c(Cl)cccc7Cl)CC6)ccc54)CCNCC3)cc2OC)cc(OC)c1 [Compound 43MEW63],–
36 µM,"O=C(NCCCn1cc(-c2cccc(F)c2)c2c(CN3CCN(CCOc4ccc(Cl)cc4)CC3)cccc21)C1(NCc2ccc(OCc3ccc(F)cc3)c(Cl)c2)CCNCC1 [Compound 35MEW12, 4-((3-chloro-4-((4-fluorobenzyl)oxy)benzyl)amino)-N-(3-(4-((4-(2-(4-chlorophenoxy)ethyl)piperazin-1-yl)methyl)-3-(3-fluorophenyl)-1H-indol-1-yl)propyl)piperidine-4-carboxamide]",–
24 µM,"CC(C)Oc1ccccc1-c1ccc(CNC2(C(=O)NCCCn3cc(-c4ccc(OC(F)(F)F)cc4)c4cc(CN5CCN(Cc6c(Cl)cccc6Cl)CC5)ccc43)CCNCC2)nc1 [Compound 43MEW73, N-(3-(5-((4-(2,6-dichlorobenzyl)piperazin-1-yl)methyl)-3-(4-(trifluoromethoxy)phenyl)-1H-indol-1-yl)propyl)-4-(((5-(2-isopropoxyphenyl)pyridin-2-yl)methyl)amino)piperidine-4-carboxamide]",–
7.9 µM,"O=C(NCCCn1cc(-c2ccc(OC(F)(F)F)cc2)c2cc(CN3CCN(Cc4c(Cl)cccc4Cl)CC3)ccc21)C1(NCc2ccc(OCc3cc(C(F)(F)F)cc(C(F)(F)F)c3)cc2)CCNCC1 [Compound 43MEW65, 4-((4-((3,5-bis(trifluoromethyl)benzyl)oxy)benzyl)amino)-N-(3-(5-((4-(2,6-dichlorobenzyl)piperazin-1-yl)methyl)-3-(4-(trifluoromethoxy)phenyl)-1H-indol-1-yl)propyl)piperidine-4-carboxamide]",–
–,"CN[C@@H]1C[C@H]2O[C@@](C)([C@@H]1OC)n1c3ccccc3c3c4c(c5c6ccccc6n2c5c31)C(=O)NC4 [staurosporine, reference compound]","fluorescence of caspase 3/7 substrate ([4]; 31MEW44 5 μM, 34MEW43 10 μM, 34MEW95 5 μM): Increased fluorescence; fluorescence of caspase 3/7 substrate ([4]; 31MEW44 2.5 and 5 μM): Increased fluorescence"
–,"4-hydroxytamoxifen [Compound 4OHT, reference compound]",growth inhibition [5]: 91%
–,Nc1nc2c(ncn2[C@@H]2O[C@H](COP(=O)(O)OP(=O)(O)O)[C@@H](O)[C@H]2O)c(=O)[nH]1 [GDP],displacement of BODIPY-GTP [2]: can displace
> 10000 µM,"O=C(NCCCn1cc(-c2c(C(F)(F)F)cccc2C(F)(F)F)c2cc(CN3CCN(Cc4cc(C(F)(F)F)cc(C(F)(F)F)c4)CC3)ccc21)C1CNCCN1 (stereo not shown) [Compound 32MEW56, N-(3-(5-((4-(3,5-bis(trifluoromethyl)benzyl)piperazin-1-yl)methyl)-3-(2,6-bis(trifluoromethyl)phenyl)-1H-indol-1-yl)propyl)piperazine-2-carboxamide]",–
